Test results: patent US20140120083A1, “TREATMENT OF CANCERS USING PI3 KINASE ISOFORM MODULATORS” (INFINITY PHARMACEUTICALS, INC., priority 2012, published 2014)
“And” between values parts separate entries of the source, which are not always exact repeats. Equal values may be shown once. “Also recorded” adds a separate entry of the source. Marks after values point to notes of the source that are not given here.

Legend:
Caco-2 cell monolayers = test: Membrane permeability, Caco-2 cell monolayers; format: in vitro ADME, human
[1] = system: hemodynamic and electrocardiographic parameters; test: Cardiovascular telemetry study; format: in vivo, cynomolgus monkey; details: male monkeys
From the text: Four non-naive, male monkeys implanted with radiotelemetry transmitters were utilized during the conduct of this study.

PI3K δ = PI3K δ (Homo sapiens, UniProt O00329); test: Clinical study in healthy subjects, basophil activation (CD63 on CCR3+ basophils, ex vivo anti-FcεR1); parameters: from tissue; host or cells: human whole blood (basophils)
Chain of PI3K δ (O00329 whole entry): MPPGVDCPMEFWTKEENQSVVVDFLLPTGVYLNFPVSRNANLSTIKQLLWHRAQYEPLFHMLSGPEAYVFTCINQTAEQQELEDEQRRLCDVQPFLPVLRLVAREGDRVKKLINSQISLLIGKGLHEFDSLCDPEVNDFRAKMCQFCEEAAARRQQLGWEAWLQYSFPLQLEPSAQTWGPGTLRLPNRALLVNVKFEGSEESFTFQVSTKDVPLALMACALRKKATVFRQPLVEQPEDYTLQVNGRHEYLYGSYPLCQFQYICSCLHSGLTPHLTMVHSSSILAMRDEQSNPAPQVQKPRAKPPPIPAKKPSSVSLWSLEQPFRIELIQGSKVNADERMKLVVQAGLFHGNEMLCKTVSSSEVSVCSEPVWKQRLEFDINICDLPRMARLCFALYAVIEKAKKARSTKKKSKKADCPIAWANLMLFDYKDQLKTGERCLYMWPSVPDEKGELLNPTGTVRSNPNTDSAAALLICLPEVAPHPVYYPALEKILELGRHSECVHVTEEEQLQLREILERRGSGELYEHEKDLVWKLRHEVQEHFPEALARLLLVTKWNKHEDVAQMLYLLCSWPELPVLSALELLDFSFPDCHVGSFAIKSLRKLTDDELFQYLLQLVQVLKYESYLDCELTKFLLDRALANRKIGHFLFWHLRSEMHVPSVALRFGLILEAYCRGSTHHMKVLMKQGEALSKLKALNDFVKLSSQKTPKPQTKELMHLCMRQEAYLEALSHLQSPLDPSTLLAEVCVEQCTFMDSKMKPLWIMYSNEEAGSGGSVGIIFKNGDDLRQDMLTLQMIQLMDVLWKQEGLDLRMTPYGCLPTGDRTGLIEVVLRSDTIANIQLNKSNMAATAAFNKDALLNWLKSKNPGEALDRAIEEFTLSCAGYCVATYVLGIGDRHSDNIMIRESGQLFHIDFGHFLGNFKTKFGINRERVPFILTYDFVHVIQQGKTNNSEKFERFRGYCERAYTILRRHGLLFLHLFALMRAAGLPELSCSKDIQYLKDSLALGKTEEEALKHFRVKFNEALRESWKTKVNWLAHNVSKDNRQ
Chain of PI3K δ (P27986 whole entry partner): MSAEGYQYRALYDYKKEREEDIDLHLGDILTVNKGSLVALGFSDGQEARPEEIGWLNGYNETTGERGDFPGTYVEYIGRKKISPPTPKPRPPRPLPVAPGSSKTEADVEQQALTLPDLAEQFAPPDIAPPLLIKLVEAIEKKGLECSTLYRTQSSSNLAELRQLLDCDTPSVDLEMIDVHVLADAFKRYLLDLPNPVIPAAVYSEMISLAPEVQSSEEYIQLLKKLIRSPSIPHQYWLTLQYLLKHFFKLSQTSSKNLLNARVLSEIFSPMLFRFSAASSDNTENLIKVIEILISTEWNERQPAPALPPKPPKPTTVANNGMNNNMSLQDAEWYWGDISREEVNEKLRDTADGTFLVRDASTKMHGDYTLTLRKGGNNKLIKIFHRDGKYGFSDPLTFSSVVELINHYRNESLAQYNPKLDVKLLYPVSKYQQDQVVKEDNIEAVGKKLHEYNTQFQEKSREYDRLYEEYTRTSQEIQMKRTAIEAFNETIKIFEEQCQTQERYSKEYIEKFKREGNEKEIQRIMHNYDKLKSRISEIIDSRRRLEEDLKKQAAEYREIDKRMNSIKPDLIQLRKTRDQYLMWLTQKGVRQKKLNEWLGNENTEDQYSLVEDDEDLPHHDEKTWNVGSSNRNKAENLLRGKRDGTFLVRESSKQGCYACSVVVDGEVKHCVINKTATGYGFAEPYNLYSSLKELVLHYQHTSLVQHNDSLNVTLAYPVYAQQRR

[2] = 13-week repeat-dose safety study, monkey
[3] = system: TNF-α and IL-10 production; test: Cytokine production in diluted whole blood stimulated with LPS; format: cell-based; details: diluted whole blood (1:1), 24 hours pre-treatment, 100 μg/mL LPS
Protocol: Serum concentrations of a panel of human cytokines/chemokines were determined by Milliplex 96-well immuno-assay as described below.

[4] = Tissue distribution of radiolabelled compound; format: in vivo; details: rat, radiolabelled Compound 292, majority of tissues
human P-glycoprotein = biological target: T1, human P-glycoprotein (Homo sapiens, UniProt P08183); test: Interaction with P-glycoprotein, Caco-2; format: in vitro ADME; details: Caco-2 cell monolayers
T1 construct: endogenous in cells; host or cells: Caco-2
T1 sequence (P08183 whole entry): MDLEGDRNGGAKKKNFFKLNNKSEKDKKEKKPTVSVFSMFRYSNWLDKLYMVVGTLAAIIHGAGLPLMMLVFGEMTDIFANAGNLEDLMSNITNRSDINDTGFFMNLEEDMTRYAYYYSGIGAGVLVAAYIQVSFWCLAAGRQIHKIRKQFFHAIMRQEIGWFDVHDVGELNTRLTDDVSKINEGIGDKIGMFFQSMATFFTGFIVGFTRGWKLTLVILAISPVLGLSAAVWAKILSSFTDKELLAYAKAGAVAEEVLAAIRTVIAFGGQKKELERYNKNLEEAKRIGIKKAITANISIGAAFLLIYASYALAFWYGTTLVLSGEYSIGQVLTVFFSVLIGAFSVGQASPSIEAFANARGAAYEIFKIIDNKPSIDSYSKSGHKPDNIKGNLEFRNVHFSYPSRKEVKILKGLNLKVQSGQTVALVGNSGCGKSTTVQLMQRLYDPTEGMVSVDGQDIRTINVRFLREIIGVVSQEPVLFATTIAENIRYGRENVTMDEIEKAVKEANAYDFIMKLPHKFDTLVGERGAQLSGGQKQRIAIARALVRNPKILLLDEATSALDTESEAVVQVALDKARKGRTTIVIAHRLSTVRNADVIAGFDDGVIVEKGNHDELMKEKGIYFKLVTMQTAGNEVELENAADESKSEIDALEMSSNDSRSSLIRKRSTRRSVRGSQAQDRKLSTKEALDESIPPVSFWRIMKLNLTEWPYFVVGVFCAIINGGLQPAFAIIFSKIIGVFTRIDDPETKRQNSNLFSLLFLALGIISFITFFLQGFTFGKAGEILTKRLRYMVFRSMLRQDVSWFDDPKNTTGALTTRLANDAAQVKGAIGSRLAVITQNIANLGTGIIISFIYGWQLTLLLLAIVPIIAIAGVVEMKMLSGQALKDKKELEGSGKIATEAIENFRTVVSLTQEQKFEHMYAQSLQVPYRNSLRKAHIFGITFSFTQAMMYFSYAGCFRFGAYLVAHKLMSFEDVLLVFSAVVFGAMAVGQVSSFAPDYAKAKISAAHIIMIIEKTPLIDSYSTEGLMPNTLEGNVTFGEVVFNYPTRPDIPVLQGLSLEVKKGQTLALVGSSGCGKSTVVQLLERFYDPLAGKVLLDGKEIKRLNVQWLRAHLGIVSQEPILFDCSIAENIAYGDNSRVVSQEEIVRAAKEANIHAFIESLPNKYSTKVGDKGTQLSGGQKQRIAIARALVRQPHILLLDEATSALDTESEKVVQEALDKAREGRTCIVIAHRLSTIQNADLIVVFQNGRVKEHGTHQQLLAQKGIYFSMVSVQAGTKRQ

hematologic malignancies = test: Phase 1 study in advanced hematologic malignancies, clinical response
[5] = In vitro genetic toxicity studies
Pharmacokinetics, dog = format: in vivo, Beagle dogs; details: for Foral: AUC0-last; for clearance / Vd / AUC(0-inf) / AUC(0-t) / Cmax / half-life / Tmax: beagle, in vivo; for Vd: read-out: Vss; for AUC(0-t): read-out: AUC0-last (AUC0-24)
[6] = Phase 1 study in advanced hematologic malignancies, pharmacokinetics; format: in vivo, human; details: patients
Protocol: PK and PD markers were evaluated after the first dose (e.g., 8 mg BID) and at steady state. PD activity (PI3K inhibition) in whole blood was evaluated using a basophil activation assay which measured reduction in CD63 expression on the surface of basophils following ex vivo stimulation.

Pharmacokinetics, rat = format: in vivo, Sprague-Dawley rats
respiratory system = test: Respiratory study (plethysmography); details: male rats, single oral dose up to 350 mg/kg
[7] = 13-week repeat-dose safety study, rat
[8] = Embryo/fetal developmental toxicity, rat
central nervous system = test: Neurofunctional study (FOB, motor activity); details: male rats
[9] = po, 5 mg/kg, 5 mg/kg (study with 0.5 mg/kg IV)
[10] = po, 5 mg/kg, 5 mg/kg (study with 1 mg/kg IV)
[11] = Sprague-Dawley, in vivo, IV, 2 mg/kg
[12] = Sprague-Dawley, in vivo, PO, 10 mg/kg

C[C@H](Nc1ncnc2[nH]cnc12)c1cc2cccc(Cl)c2c(=O)n1-c1ccccc1 [Compound 292]
cell membrane permeability (Caco-2 cell monolayers): moderate | hemodynamic or electrocardiographic parameters ([1]; single oral dose of 5, 30, and 150 mg/kg): No Compound 292-related effects | waveform abnormalities or arrhythmias ([1]; up to 150 mg/kg oral): no waveform abnormalities or arrhythmias | basophil activation (CD63 expression on CCR3+ basophils) (PI3K δ; all single and multiple dose levels): dose-dependent reduction; also recorded: reduced in a dose-dependent manner | dose at which maximal PD response was achieved (PI3K δ; single dose): 5 mg | NOAEL ([2]; 13-week monkey study, oral gavage): 60 mg/m^2/day | NOAEL at 13 weeks ([2]; both, cynomolgus monkey, in vivo, po): 5 mg/kg/day | mean AUC0-24 hr at the NOAEL ([2]; monkey, Day 91, combined sexes): 4015 ng·h/mL | IL-10 production [3]: inhibition | TNF-α production [3]: inhibition | radioactivity in tissues at 24 hr [4]: without quantifiable levels of radioactivity | P-gp substrate (human P-glycoprotein): is a P-gp substrate | inhibition of P-gp transport (human P-glycoprotein): has the potential to inhibit the active transport of other P-gp substrates | onset of clinical activity (hematologic malignancies; CLL/SLL): Rapid onset | responses in evaluable patients (hematologic malignancies; CLL/SLL, 8, 15, and 25 mg BID dose levels): ⅔ | Best Observed Response CR (hematologic malignancies; CLL/SLL, 11 evaluable): 0 n | Best Observed Response PR (hematologic malignancies; CLL/SLL, 11 evaluable): 6 n | Best Observed Response SD (hematologic malignancies; CLL/SLL, 11 evaluable, four nodal responses): 4^c n | Best Observed Response PR (hematologic malignancies; HL, 2 evaluable): 0 n | Best Observed Response SD (hematologic malignancies; HL, 2 evaluable): 0 n | Best Observed Response CR (hematologic malignancies; MCL, 3 evaluable): 0 n | Best Observed Response PR (hematologic malignancies; MCL, 3 evaluable): 2 n | Best Observed Response SD (hematologic malignancies; MCL, 3 evaluable): 0 n | responses in evaluable patients (hematologic malignancies; MCL, 8, 15, and 25 mg BID dose levels): 1/1 | Best Observed Response CR (hematologic malignancies; MM, 3 evaluable): 0 n | Best Observed Response PD (hematologic malignancies; MM, 3 evaluable): 2 n | Best Observed Response PR (hematologic malignancies; MM, 3 evaluable): 0 n | Best Observed Response PD (hematologic malignancies; T-Cell Lymphoma, 6 evaluable): 3 n | doses at which responses were observed (hematologic malignancies; T-cell lymphoma and Hodgkin lymphoma): ≥ 50 mg BID | Best Observed Response CR (hematologic malignancies; aNHL, 3 evaluable): 0 n | Best Observed Response PD (hematologic malignancies; aNHL, 3 evaluable): 2 n | Best Observed Response PR (hematologic malignancies; aNHL, 3 evaluable): 0 n | tumor mass (hematologic malignancies; all indications and all dose levels evaluated): Reduction in tumor mass | responses in evaluable patients (hematologic malignancies; iNHL, 8, 15, and 25 mg BID dose levels): ½ | Best Observed Response PR (hematologic malignancies; iNHL, 13 evaluable): 7 n | Best Observed Response SD (hematologic malignancies; iNHL, 13 evaluable): 4 n | doses at which responses were observed (hematologic malignancies; iNHL, CLL/SLL, and MCL): ≤ 50 mg BID | pulmonary metastases by PET/CT (hematologic malignancies; patient, enteropathy-associated T-cell lymphoma, 2 cycles, 60 mg BID): complete resolution | genetic toxicity [5]: no genetic toxicity | Foral (Pharmacokinetics, dog; PO, 5 mg/kg, 0.5 mg/kg IV dose as reference): 97^g,i % | Foral (Pharmacokinetics, dog; PO, 5 mg/kg, 1 mg/kg IV dose as reference): 40% and 40^h,i % | clearance (Pharmacokinetics, dog; IV, 0.5 mg/kg): 0.85 mL/min/kg | Vd (Pharmacokinetics, dog; IV, 0.5 mg/kg): 0.13 L/kg | clearance (Pharmacokinetics, dog; IV, 1 mg/kg): 3.23 mL/min/kg | Vd (Pharmacokinetics, dog; IV, 1 mg/kg): 0.493 L/kg | AUC(0-inf) (Pharmacokinetics, dog; iv, 0.5 mg/kg): 11900 ng·h/mL | AUC(0-t) (Pharmacokinetics, dog; iv, 0.5 mg/kg, IV, 0.5 mg/kg): 11700 ng·h/mL | Cmax (Pharmacokinetics, dog; iv, 0.5 mg/kg, IV, 0.5 mg/kg, read-out: Cmax (reported value is C0)): 4410 ng/mL | half-life (Pharmacokinetics, dog; iv, 0.5 mg/kg, IV, 0.5 mg/kg, read-out: T1/2 (converted)): 2 h | AUC(0-inf) (Pharmacokinetics, dog; iv, 1 mg/kg): 6270 ng·h/mL | AUC(0-t) (Pharmacokinetics, dog; iv, 1 mg/kg, IV, 1 mg/kg): 5880 ng·h/mL | Cmax (Pharmacokinetics, dog; iv, 1 mg/kg, IV, 1 mg/kg, read-out: Cmax (reported value is C0)): 1800 ng/mL | half-life (Pharmacokinetics, dog; iv, 1 mg/kg, IV, 1 mg/kg, read-out: T1/2 (converted)): 1.83 h | AUC(0-inf) (Pharmacokinetics, dog; [9]): 107000 ng·h/mL | Tmax (Pharmacokinetics, dog; [9]): 3 h | AUC(0-inf) (Pharmacokinetics, dog; [10]): 13800 ng·h/mL | Tmax (Pharmacokinetics, dog; [10]): 1.33 h | AUC(0-t) (Pharmacokinetics, dog; po, 5 mg/kg, PO, 5 mg/kg (study with 0.5 mg/kg IV)): 105000 ng·h/mL | Cmax (Pharmacokinetics, dog; po, 5 mg/kg, PO, 5 mg/kg (study with 0.5 mg/kg IV), read-out: Cmax): 9600 ng/mL | half-life (Pharmacokinetics, dog; po, 5 mg/kg, PO, 5 mg/kg (study with 0.5 mg/kg IV), read-out: T1/2 (converted)): 3.9 h | AUC(0-t) (Pharmacokinetics, dog; po, 5 mg/kg, PO, 5 mg/kg (study with 1 mg/kg IV)): 10900 ng·h/mL | Cmax (Pharmacokinetics, dog; po, 5 mg/kg, PO, 5 mg/kg (study with 1 mg/kg IV), read-out: Cmax): 2370 ng/mL | half-life (Pharmacokinetics, dog; po, 5 mg/kg, PO, 5 mg/kg (study with 1 mg/kg IV), read-out: T1/2 (converted)): 3.15 h | half-life (Pharmacokinetics, dog; read-out: half-life (converted)): 2 h | half-life ([6]; human, in vivo, oral, read-out: eliminating t1/2): 6 to 10 h | doses with mean steady-state trough above levels sufficient for PI3K-δ inhibition [6]: > 15 mg BID | plasma Cmax and AUC over the dose range ([6]; 8-50 mg BID): dose-proportional increases | PK profile ([6]; through 50 mg BID): linear | clearance (Pharmacokinetics, rat): low to moderate | half-life (Pharmacokinetics, rat): less than 2 hrs | volume of distribution (Pharmacokinetics, rat): high | Foral (Pharmacokinetics, rat; PO, 10 mg/kg): 57% | AUC(0-inf) (Pharmacokinetics, rat; [11]): 1160 ng·h/mL | AUC(0-t) (Pharmacokinetics, rat; [11]): 1150 ng·h/mL | Cmax (Pharmacokinetics, rat; [11]): 1520 ng/mL | Tmax (Pharmacokinetics, rat; [11]): 0.083 h | clearance (Pharmacokinetics, rat; Sprague-Dawley, in vivo, IV, 2 mg/kg, read-out: Cl (converted)): 30.5 mL/min/kg | half-life (Pharmacokinetics, rat; Sprague-Dawley, in vivo, IV, 2 mg/kg, read-out: T1/2 (converted)): 0.73 h | Vd (Pharmacokinetics, rat; Sprague-Dawley, in vivo, IV, 2 mg/kg, read-out: Vss): 1.66 L/kg | AUC(0-inf) (Pharmacokinetics, rat; [12]): 3300 ng·h/mL | AUC(0-t) (Pharmacokinetics, rat; [12]): 2930 ng·h/mL | Cmax (Pharmacokinetics, rat; [12]): 785 ng/mL | Tmax (Pharmacokinetics, rat; [12]): 1.2 h | half-life (Pharmacokinetics, rat; Sprague-Dawley, in vivo, PO, 10 mg/kg, read-out: T1/2 (converted)): 2.4 h | respiratory parameters (respiratory rate, tidal volume, minute volume) (respiratory system): no Compound 292-related effects | NOAEL ([7]; 13-week rat study, oral gavage): 150 mg/m^2/day | NOAEL at 13 weeks ([7]; both, rat, in vivo, po): 25 mg/kg/day | mean AUC0-24 hr at the NOAEL ([7]; rat, Day 91, combined sexes): 14150 ng·h/mL | NOAEL ([8]; female, rat, in vivo): 35 mg/kg/day | mean AUC0-24 hr at the NOAEL ([8]; pregnant rats, last day of dosing): 62200 ng·h/mL | maternal and fetal NOAEL ([8]; rat): 210 mg/m^2/day | locomotor activity (central nervous system; 2 h after a 350 mg/kg oral dose): Significant decreases | effects on the central nervous system (central nervous system; dose levels≦50 mg/kg): No effects | qualitative or quantitative FOB parameters (central nervous system; single oral dose up to 350 mg/kg, up to 24 h post-dose): no changes
